Laboratory results: ChEMBL document CHEMBL4152220, “Discovery of new benzensulfonamide derivatives as tripedal STAT3 inhibitors” (Eur J Med Chem, 2018)
Calls of active or inactive are those of the source. No cut-off for these calls is given here.

Key:
[1] = tested on: HCT-116; test: Induction of apoptosis in human HCT116 cells assessed as late apoptotic cells at 12 uM after 20 hrs by Annexin V-APC/7-AAD staining-based flow cytometric analysis (reference value: 0.0%); assay type: functional
[2] = tested on: Mus musculus; test: Toxicity in ICR mouse assessed as mortality at 10 to 80 mg/kg, ip measured up to 2 weeks post treatment; assay type: organism-based; conditions: in vivo, 336 h
[3] = tested on: HCT-116; test: Induction of apoptosis in human HCT116 cells assessed as increase in cleaved caspase7 level after 20 hrs by Western blot analysis; assay type: functional, cell-based
[4] = tested on: HCT-116; test: Induction of apoptosis in human HCT116 cells assessed as early apoptotic cells at 4 uM after 20 hrs by Annexin V-APC/7-AAD staining-based flow cytometric analysis (reference value: 3.1%); assay type: functional
[5] = tested on: HCT-116; test: Induction of apoptosis in human HCT116 cells assessed as late apoptotic cells at 8 uM after 20 hrs by Annexin V-APC/7-AAD staining-based flow cytometric analysis (reference value: 0.0%); assay type: functional
[6] = tested on: HCT-116; test: Induction of ROS generation in human HCT116 cells at 4 to 12 uM after 20 hrs by DCFH-DA staining-based flow cytometric analysis; assay type: functional, cell-based
[7] = molecular target: T1, Signal transducer and activator of transcription 1-alpha/beta (Homo sapiens) (UniProt P42224); test: Inhibition of STAT1 phosphorylation at Y701 residue in human HCT116 cells at 4 to 12 uM after 20 hrs by Western blot analysis; assay type: cell-based
T1 sequence (whole entry): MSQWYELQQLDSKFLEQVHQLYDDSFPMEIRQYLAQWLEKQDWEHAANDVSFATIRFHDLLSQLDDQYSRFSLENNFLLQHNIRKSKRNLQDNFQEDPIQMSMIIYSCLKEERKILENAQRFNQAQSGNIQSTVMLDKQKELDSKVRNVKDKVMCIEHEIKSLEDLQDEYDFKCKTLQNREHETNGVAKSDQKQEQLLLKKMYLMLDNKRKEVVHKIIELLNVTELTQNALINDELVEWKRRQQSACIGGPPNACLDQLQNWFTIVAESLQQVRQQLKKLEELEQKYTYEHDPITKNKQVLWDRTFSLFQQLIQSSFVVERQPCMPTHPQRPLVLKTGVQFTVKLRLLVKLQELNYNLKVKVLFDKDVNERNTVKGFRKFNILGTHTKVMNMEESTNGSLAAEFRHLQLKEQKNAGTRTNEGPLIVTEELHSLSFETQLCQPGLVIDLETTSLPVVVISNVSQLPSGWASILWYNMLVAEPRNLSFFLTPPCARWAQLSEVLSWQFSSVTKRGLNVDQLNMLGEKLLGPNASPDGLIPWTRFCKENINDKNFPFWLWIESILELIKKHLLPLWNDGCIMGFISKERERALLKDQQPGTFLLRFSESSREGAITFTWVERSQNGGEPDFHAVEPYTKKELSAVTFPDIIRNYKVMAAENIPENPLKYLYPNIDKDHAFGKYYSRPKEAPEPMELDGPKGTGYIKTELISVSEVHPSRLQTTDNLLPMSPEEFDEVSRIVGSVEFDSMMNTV

[8] = tested on: HCT-116; test: Induction of apoptosis in human HCT116 cells assessed as necrotic cells at 4 uM after 20 hrs by Annexin V-APC/7-AAD staining-based flow cytometric analysis (reference value: 0.1%); assay type: functional
[9] = tested on: HCT-116; test: Induction of apoptosis in human HCT116 cells assessed as viable cells at 12 uM after 20 hrs by Annexin V-APC/7-AAD staining-based flow cytometric analysis (reference value: 96.8%); assay type: functional; conditions: HCT-116, 20 h, read-out: Activity
[10] = tested on: Mus musculus; test: Toxicity in ICR mouse assessed as abnormal behavior at 10 to 80 mg/kg, ip measured up to 2 weeks post treatment; assay type: organism-based; conditions: in vivo, 336 h
[11] = tested on: HCT-116; test: Antitumor activity against human HCT116 cells xenografted in nude mouse assessed as decrease in tumor volume at 20 mg/kg, ip dosed daily for 15 days relative to untreated control; assay type: functional; set-up: scale not given: the % may be the effect or the level left
[12] = molecular target: T1, Signal transducer and activator of transcription 1-alpha/beta (Homo sapiens); test: Inhibition of STAT1 phosphorylation at Y701 residue in human HCT116 cells at 10 uM after 20 hrs by Western blot analysis; assay type: cell-based

## CC(C)c1ccc(CN(Cc2c(F)c(F)c(F)c(F)c2F)c2cccc(S(N)(=O)=O)c2)cc1
[1]
  Activity: 0.6%
[2]
  Activity: Non-Toxic
[3]
  Activity: Dose-dependent effect
[4]
  Activity: 7%
[5]
  Activity: 0.2%
[6]
  Activity: Active
[7]
  inhibition: inactive
[8]
  Activity: 0.1%
[9]
  viability at 12 µM: 77%
[10]
  Activity: Non-Toxic
[11]
  Activity: 58.12%
[12]
  inhibition: inactive
